According to the supplement of paper PMC5579334:
± gives the standard deviation of the averaged measurements.

How the values were obtained:
[1] = tested on: S1507-2; experiment: drug sensitivity score (DSS, CellTox-Green cytotoxicity, 72 h) (DSS (dimensionless)); higher = more cytotoxic; extreme values may be limits of the assay
In short: (§1)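 MPNST cell lines and primary human Schwann cells were incubated 72 h at 37 °C in 384-well plates holding five 10-fold compound dilutions. CellTox-Green was added before seeding at a final 1:1000 dilution and reported fluorescence from DNA released by disrupted cells. Signals were scaled to vehicle and positive-control wells, and cultures failing plate quality control were dropped. Drug sensitivity score and relative IC50 come from four-parameter logistic fits, with IC50 censored at the top concentration.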

[2] = tested on: HSC1 (primary human Schwann cells); experiment: as above
In short: as §1

[3] = tested on: STS26T; experiment: as above
In short: as §1

[4] = tested on: HSC2 (primary human Schwann cells); experiment: as above
In short: as §1

[5] = tested on: HS-PSS; experiment: as above
In short: as §1

[6] = tested on: ST8814; experiment: as above
In short: as §1

[7] = tested on: S1507-2; experiment: drug sensitivity score (DSS, CellTiter-Glo viability, 72 h) (DSS (dimensionless)); higher = more sensitive; extreme values may be limits of the assay
In short: (§2)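 Viability was scored by CellTiter-Glo ATP luminescence, scaled from vehicle to positive-control wells, with duplicates averaged where present. The cells, MPNST lines and primary human Schwann cells at 750–1000 per well, sat 72 h at 37 °C, 5% CO2, in 384-well plates preprinted with each compound at five concentrations in 10-fold steps. Four-parameter logistic fits were run on the data. These fits give drug sensitivity score and relative IC50 censored at the top concentration, and percent inhibition is reported at the top concentration.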

[8] = tested on: HS-Sch-2; experiment: as above
In short: as §2

[9] = tested on: HSC1 (primary human Schwann cells); experiment: as above
In short: as §2

[10] = tested on: STS26T; experiment: as above
In short: as §2

[11] = tested on: HSC2 (primary human Schwann cells); experiment: as above
In short: as §2

[12] = tested on: HS-PSS; experiment: as above
In short: as §2

[13] = tested on: ST8814; experiment: as above
In short: as §2

[14] = tested on: S462; experiment: as above
In short: as §2

[15] = tested on: YST-1; experiment: as above
In short: as §2

[16] = tested on: S1507-2; experiment: % inhibition of CellTiter-Glo viability at highest tested concentration (72 h), relative to DMSO and benzethonium chloride controls; higher = more inhibition
In short: as §2

[17] = tested on: HS-Sch-2; experiment: as above
In short: as §2

[18] = tested on: HSC1 (primary human Schwann cells); experiment: as above
In short: as §2

[19] = tested on: STS26T; experiment: as above
In short: as §2

[20] = tested on: HSC2 (primary human Schwann cells); experiment: as above
In short: as §2

[21] = tested on: HS-PSS; experiment: as above
In short: as §2

[22] = tested on: ST8814; experiment: as above
In short: as §2

[23] = tested on: S462; experiment: as above
In short: as §2

[24] = tested on: YST-1; experiment: as above
In short: as §2

| Structure (SMILES) | drug sensitivity score [1] | drug sensitivity score [2] | drug sensitivity score [3] | drug sensitivity score [4] | drug sensitivity score [5] | drug sensitivity score [6] | drug sensitivity score [7] | drug sensitivity score [8] | drug sensitivity score [9] | drug sensitivity score [10] | drug sensitivity score [11] | drug sensitivity score [12] | drug sensitivity score [13] | drug sensitivity score [14] | drug sensitivity score [15] | % inhibition [16] [%] | % inhibition [17] [%] | % inhibition [18] [%] | % inhibition [19] [%] | % inhibition [20] [%] | % inhibition [21] [%] | % inhibition [22] [%] | % inhibition [23] [%] | % inhibition [24] [%] |
| --- | --- | --- | --- | --- | --- | --- | --- | --- | --- | --- | --- | --- | --- | --- | --- | --- | --- | --- | --- | --- | --- | --- | --- | --- |
| Nc1cc(C(F)(F)F)c(-c2cc(N3CCOCC3)nc(N3CCOCC3)n2)cn1 [Buparlisib] (max concentration tested 10000 nM) | 5.23 ± 2.9 | 5.07 | 8.28 | 7.46 | 0 | 4.69 | 8.72 ± 0.83 | 8.73 | 6.85 | 9.07 | 7.01 | 6.19 | 8.12 | 8.35 ± 0.34 | 12.1 | 88.421 ± 0.034 | 95.2 | 85.1 | 96.8 | 88.1 | 70.9 | 90.9 | 97.02 ± 0.16 | 95.3 |
| O=C(c1cc(Cc2n[nH]c(=O)c3ccccc23)ccc1F)N1CCN(C(=O)C2CC2)CC1 [Olaparib] (max concentration tested 10000 nM) | 0.075 ± 0.11 | 0 | 1.04 | 0.201 | 0 | 1.56 | 1.07 ± 0.15 | 2.98 | 3.07 | 3.17 | 3.8 | 1.4 | 1.85 | 4.85 ± 0.63 | 10.2 | 25.7 ± 8.5 | 32.8 | 38.1 | 46.3 | 39.3 | 23.2 | 41.6 | 61.15 ± 0.35 | 69 |
| Cc1cnc(Nc2ccc(F)cc2Cl)nc1-c1c[nH]c(C(=O)N[C@H](CO)c2cccc(Cl)c2)c1 [VX-11E] (max concentration tested 2500 nM) | 2.31 ± 3.2 | 2 | 2.55 | 4.5 | 0 | 5.09 | 1.62 ± 0.29 | 6.97 | 3.7 | 1.5 | 4.46 | 2.39 | 3.25 | 0.861 ± 0.47 | 0 | 40.7 ± 3 | 71.8 | 64.2 | 34 | 71.8 | 44.5 | 67.8 | 29.1 ± 8.6 | 6.16 |
| COc1cc2c(NC3CCN(C(C)C)CC3)nc(N3CCC(F)(F)CC3)nc2cc1OCCCN1CCCC1 [UNC0642] (max concentration tested 10000 nM) | 7.07 ± 1.3 | 0 | 6.03 | 0 | 4.78 | 5.37 | 8.23 ± 0.62 | 6.08 | 0 | 5.57 | 0 | 6.56 | 5.87 | 5.99 ± 0.77 | 5.26 | 101.9 ± 0.52 | 100 | 7.89 | 96.5 | 7.25 | 99.3 | 99.1 | 93 ± 3 | 94.9 |
| Nc1nc(F)nc2c1ncn2[C@@H]1O[C@H](CO)[C@@H](O)[C@@H]1O [Fludarabine] (max concentration tested 10000 nM) | 0 | 0 | 0 | 0 | 0 | 0 | 0.851 ± 1.2 | 2.33 | 0.98 | 2.39 | 2.94 | 2.18 | 0 | 0.582 ± 0.72 | 3.5 | 17.2 ± 10 | 35 | 27.8 | 31.6 | 48.6 | 24.9 | 1.25 | 20 ± 11 | 69.7 |
| O=NN(CCCl)C(=O)NC1CCCCC1 [Lomustine] (max concentration tested 10000 nM) | 0 | 0 | 0 | 0 | 0 | 0 | 0 | 0 | 0 | 0 | 0 | 0 | 0 | 0 | 0 | -7.84 ± 0.87 | -15 | -0.952 | 0.864 | -3.35 | -0.39 | -8.13 | -9.57 ± 4 | 0.78 |
| CN(C)c1nc(N(C)C)nc(N(C)C)n1 [Altretamine] (max concentration tested 10000 nM) | 0.0018 ± 0.0026 | 0 | 0 | 0 | 0 | 0 | 0 | 0 | 0 | 0 | 0 | 0 | 0 | 0 | 0 | -7.42 ± 0.53 | -1.37 | 6.31 | 5.66 | -0.459 | -1.71 | -6.95 | -12.7 ± 1.5 | 9.76 |
| CN[C@@H](C)C(=O)N[C@H]1CN(C(=O)CC(C)C)CC[C@H]2CC[C@@H](C(=O)NC(c3ccccc3)c3ccccc3)N2C1=O [AT-406] (max concentration tested 10000 nM) | 13.1 ± 11 | 0 | 22.4 | 0 | 0 | 0 | 0.378 ± 0.28 | 0 | 0 | 12.4 | 0 | 0.14 | 0 | 0 | 0 | 14.97 ± 0.11 | 10.6 | -7.18 | 56 | -4.84 | 14.3 | 3.57 | 3.84 ± 5.2 | 8.35 |
| C/C(=C\c1csc(C)n1)[C@@H]1C[C@@H]2O[C@]2(C)CCC[C@H](C)[C@H](O)[C@@H](C)C(=O)C(C)(C)[C@@H](O)CC(=O)N1 [Ixabepilone] (max concentration tested 1000 nM) | 3.15 ± 0.92 | 4.19 | 5.61 | 3.03 | 0 | 4.33 | 3.26 ± 0.04 | 5.18 | 7.72 | 4.72 | 4.2 | 1.51 | 3.83 | 4.444 ± 0.0091 | 3.86 | 62.7 ± 3.3 | 91.8 | 69.7 | 92.9 | 62.1 | 39.3 | 79.1 | 84.3 ± 4 | 79 |
| O=S(=O)(c1cccc2cnccc12)N1CCCNCC1 [Fasudil] (max concentration tested 50000 nM) | 0 | 0.888 | 0.899 | 0 | 0.2 | 0 | 1.02 ± 0.16 | 3.75 | 1.41 | 2.86 | 1.36 | 1.83 | 0.609 | 3.84 ± 0.63 | 2.59 | 30.5 ± 1.5 | 71.5 | 27.6 | 58.9 | 31.8 | 45.6 | 22.3 | 70.6 ± 9.4 | 51 |
| Cc1ccc(Nc2nccc(N(C)c3ccc4c(C)n(C)nc4c3)n2)cc1S(N)(=O)=O [Pazopanib] (max concentration tested 10000 nM) | 0 | 0 | 0 | 0 | 0 | 0 | 0.325 ± 0.46 | 1.37 | 2.03 | 0 | 0.68 | 6.09 | 0 | 0 | 0 | 9.04 ± 7 | 20.7 | 20.7 | 7.27 | 15.2 | 42.6 | -2.02 | -0.988 ± 9.1 | 0.99 |
| Nc1ccn([C@@H]2O[C@H](CO)[C@@H](O)C2(F)F)c(=O)n1 [Gemcitabine] (max concentration tested 1000 nM) | 14.3 ± 2 | 23.3 | 19.3 | 18.5 | 7.61 | 21 | 31.7 ± 4.1 | 25.2 | 26.5 | 28.3 | 27.7 | 14.7 | 27.7 | 40.2 ± 1 | 19.7 | 86.1 ± 3.8 | 75 | 85 | 83.8 | 84.5 | 70.2 | 96.5 | 99.9 ± 2.2 | 76.7 |
| O=C(O)CCCCC(CCSCc1ccccc1)SCc1ccccc1 (configuration not stated) [CPI-613] (max concentration tested 10000 nM) | 0.502 ± 0.71 | 0 | 0 | 0 | 0 | 0 | 0 | 0 | 0 | 0 | 0 | 0.36 | 0 | 0 | 0.06 | -8.09 ± 10 | -6.28 | -3.11 | -2.54 | -1.05 | 17 | 0.691 | -9.93 ± 9.6 | 14.3 |
